Drawing on ChEMBL document CHEMBL3045086, “Two-dimensional quantitative structureactivity relationship study on polyphenols as inhibitors of -glucosidase” (Med Chem Res, 2012), this text covers logIC50 for 44 molecules.

The structures appear in SMILES notation.

In the test the target is Alpha-glucosidase MAL62 (Saccharomyces cerevisiae) (UniProt P07265). The test can be described thus: Inhibition of baker's yeast alpha-glucosidase using p-nitrophenyl-alpha-D-glucopyranoside as substrate by spectrophotometry.
Chain of Alpha-glucosidase MAL62 (Saccharomyces cerevisiae) (P07265 whole entry): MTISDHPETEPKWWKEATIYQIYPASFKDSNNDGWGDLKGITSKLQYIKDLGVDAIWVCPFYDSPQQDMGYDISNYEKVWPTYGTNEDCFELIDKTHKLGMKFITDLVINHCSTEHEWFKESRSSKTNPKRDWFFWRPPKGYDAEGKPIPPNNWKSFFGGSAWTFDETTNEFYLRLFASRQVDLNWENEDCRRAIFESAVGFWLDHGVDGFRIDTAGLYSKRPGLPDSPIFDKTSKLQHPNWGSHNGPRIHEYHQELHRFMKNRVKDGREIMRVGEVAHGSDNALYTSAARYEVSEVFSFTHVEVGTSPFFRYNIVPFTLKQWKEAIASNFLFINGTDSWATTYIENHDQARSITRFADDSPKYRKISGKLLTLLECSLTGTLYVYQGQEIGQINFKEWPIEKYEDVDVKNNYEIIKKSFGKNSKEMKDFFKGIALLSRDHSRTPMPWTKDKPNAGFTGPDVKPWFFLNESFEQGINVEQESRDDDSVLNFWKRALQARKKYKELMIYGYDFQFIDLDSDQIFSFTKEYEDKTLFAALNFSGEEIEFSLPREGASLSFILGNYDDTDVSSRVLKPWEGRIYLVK
Molecule `C=C(C)C(CC=C(C)C)Cc1c(O)cc(OC)c2c1OC(c1ccc(O)cc1O)CC2=O` (centres undefined) came in with a logIC50 of 1.83. The molecule `O=c1c(O)c(-c2ccc(O)c(O)c2)oc2cc(O)cc(O)c12` displayed a logIC50 of 0.845. With `OC[C@H]1OC(OC2=C(c3cc(O)c(O)c(O)c3)Oc3cc(O)cc(O)c3C2)[C@@H](O)[C@@H](O)[C@@H]1O` (some centres undefined), the logIC50 came out at 1.48. With `CC(C)=CCc1cc(-c2oc3cc(O)c(CC=C(C)C)c(O)c3c(=O)c2O)cc(O)c1O`, the logIC50 came out at 0.322. As for `C=CC(C)(C)c1c(O)cc(O)c2c(=O)c3oc4c5c(c(OCC=C(C)C)cc4c3oc12)OC(C)(C)C=C5`, the logIC50 was 1.44. As for `O=C(O)/C=C/c1ccc(Oc2ccccc2)cc1`, the logIC50 is 2.64.

For `COc1ccc(/C=C/C(=O)O)cc1`, the logIC50 was found to be 1.6.

The molecule `O=C(O)/C=C/c1ccc(F)cc1` returned a logIC50 of 2.43. In turn, `CCOC(=O)/C=C/c1ccc(OC)cc1` gave a logIC50 of 1.7. Then `CC(C)=CCc1cc(C(=O)/C=C/c2ccc(O)cc2)c(O)cc1O`, with 1.04; and `Oc1cc(O)c2cc(O)c(-c3ccc(O)c(O)c3)[o+]c2c1`, with 0.602.

`O=C(O)/C=C/c1cccc(O)c1` gave a logIC50 of 3.1. Regarding `Oc1cc(O)c2c(c1)OC(c1cc(O)c(O)c(O)c1)C(O)C2` (centres undefined), the logIC50 came out at 1.88. Molecule `O=c1c(O)c(-c2ccc(O)cc2O)oc2cc(O)cc(O)c12` registered a logIC50 of 1.6.

Molecule `C=C(C)C(CC=C(C)C)Cc1c(O)cc(OC)c2c1OC(c1ccc(OC)cc1O)CC2=O` (centres undefined) returned a logIC50 of 2.19. `CC(C)=CCc1c(C2CCc3ccc(O)cc3O2)cc2c(c1O)OC(C)(C)C=C2` (centres undefined): the logIC50 was found to be 1.42. Consider `O=c1c(O)c(-c2ccc(O)c(O)c2)oc2cc(O)ccc12`, for which the logIC50 is 1.11. Molecule `C=C(C)C(CC=C(C)C)Cc1c(O)cc(O)c2c1OC(c1ccc(O)cc1O)CC2=O` (centres undefined) displayed a logIC50 of 1.57.

In turn, `C=CC(C)(C)c1c(O)cc(O)c2c(=O)c(O)c(-c3cc(O)c(O)c(CC=C(C)C)c3)oc12` had a logIC50 of 0.556.

`C=CC(C)(C)c1c(O)cc(O)c2c(=O)c3oc4c(CC=C(C)C)c(O)c(OCC=C(C)C)cc4c3oc12` displayed a logIC50 of 1.52. As for `Oc1cc(O)c2c(c1)OC(c1ccc(O)c(O)c1)C(O)C2` (centres undefined), the logIC50 was found to be 2.11. Then `CC1(C)C=Cc2cc(C(=O)/C=C/c3ccc(O)cc3)c(O)cc2O1`, with 1.09; and `C=C(C)C(CC=C(C)C)Cc1c(O)cc(O)c2c1OC(c1ccccc1O)CC2=O` (centres undefined), with 1.65; and `CC(C)=CCc1cc(C2CCc3ccc(O)cc3O2)cc(O)c1O` (centres undefined), with 1.88. In the case of `CC(C)=CCc1cc(C2CCc3ccc(O)cc3O2)c(CC=C(C)C)c(O)c1O` (centres undefined), the logIC50 was determined as 1.08. Then `CC(C)=CCc1cc(C(=O)/C=C/c2ccc(O)c(O)c2)c(O)cc1O`, with 0.724; and `O=C1C[C@@H](c2ccc(O)cc2)Oc2cc(O)cc(O)c21`, with 1.88. For the molecule `O=C(O)/C=C/c1ccc(Cl)cc1`, the logIC50 turned out to be 2.59.

For the molecule `O=c1c(O)c(-c2ccc(O)cc2)oc2cc(O)cc(O)c12`, the logIC50 amounted to 1.08. In the case of `O=c1cc(-c2ccc(O)c(O)c2)oc2cc(O)cc(O)c12`, the logIC50 was 1.32. Take `OC[C@H]1OC(OC2=C(c3ccc(O)c(O)c3)Oc3cc(O)cc(O)c3C2)[C@@H](O)[C@@H](O)[C@@H]1O` (some centres undefined): the logIC50 is 1.3. To `COc1ccc([C@@H]2CC(=O)c3c(O)cc(O)cc3O2)cc1O` belongs 2.18. `C=CC(C)(C)c1cc2c(cc1O)OC(c1cc(O)c(O)c(CC=C(C)C)c1C/C=C\C)CC2` (centres undefined) had a logIC50 of 1.02. Then `O=C(O)c1cc(O)c(O)c(O)c1`, with 0.716; and `O=c1c(O)c(-c2cc(O)c(O)c(O)c2)oc2cc(O)cc(O)c12`, with 0.699. The molecule `C=C(C)C(CCC(C)(C)O)Cc1c(O)cc(OC)c2c1OC(c1ccc(O)cc1O)CC2=O` (centres undefined) had a logIC50 of 2.25. In the case of `O=C(OC1Cc2c(O)cc(O)cc2OC1c1cc(O)c(O)c(O)c1)c1cc(O)c(O)c(O)c1` (centres undefined), the logIC50 stood at 0.301.

The molecule `COc1cc(O)c(C(C)=C(C)C)c2c1C(=O)CC(c1ccc(O)cc1)O2` (centres undefined) had a logIC50 of 2.55.

Turning to `O=c1c(-c2ccc(O)cc2)coc2cc(O)cc(O)c12`, the logIC50 was 0.845. Then `COC(=O)c1cc(O)c(O)c(O)c1`, with 1.06. Take `COc1cccc(/C=C/C(=O)O)c1`: the logIC50 was 2.76. In turn, `CC1(C)C=Cc2cc(C(=O)/C=C/c3ccc(O)c(O)c3)c(O)cc2O1` registered a logIC50 of 1.28. In the case of `O=c1c(-c2ccc(O)cc2)coc2cc(O)ccc12`, the logIC50 was 1.15. Turning to `O=C(O)/C=C/c1ccc(O)cc1`, the logIC50 came out at 2.3.
